Data: patent US6613322B2, “Method for treating a subject suffering from conditions associated with an extracellular zinc sphingomyelinase” (The Trustees of Columbia University in the City of New York, priority 1997, dated 2003)

Key:
HUVECs = experiment: LDH release from HUVECs; format: cell-based, human; conditions: IL-1β 5 ng/ml, 18 h
Experimental: HUVECs were incubated for 18 h in DMEM, 0.2% BSA alone (Con) or containing human recombinant interleukin-1β (5 ng/ml) (IL1β). Conditioned media from these cells were then assayed for SMase activity (FIG. 25A) and LDH activity (FIG. 25B).
LDH Assay—LDH activity was assayed in medium and cells as reported previously (42) using a kit purchased from Sigma (catalogue #500); the assay measures the unreacted pyruvic acid using a colorometric assay.

S-SMase of HUVECs = experiment: Immunoblot of S-SMase from conditioned medium of HUVECs; format: cell-based, human; conditions: conditioned medium of IL-1β-treated HUVECs
Experimental: FIG. 26. Immunoblot analysis of L- and S-SMase from control and IL-1β-treated HUVECs. HUVECs were incubated for 18 h in DMEM, 0.2% BSA alone (Con) or containing human recombinant interleukin-1β (5 ng/ml) (IL1β). SMase was partially purified from the cell homogenates and conditioned media of these cells, and then aliquots derived from equivalent numbers of cells were subjected to immunoblot analysis. Specifically, conditioned medium from control and IL-1(-treated cells yielded 256.0 and 262.5 μg of concanavalin A eluate protein, of which 60.8 μg and 60.0 μg aliquots were loaded onto the SDS-PAGGE gel, respectively. Cell homogenates from control and IL-1β-treated cells yielded 168.1 and 160.6 μg of DEAE flow-through protein, of which 59.5 μg and 60.0 μg aliquots were loaded onto the SDS-PAGGE gel, respectively. No band at the molecular weight of L-SMase was visible in conditioned media (right-hand panels), even when overexposed.
Partial Purification of L- and S-SMase from HUVECs—A modification of previously published procedures (39) was used. Cells were scraped in ice-cold 40 mM Tris-HCl, 0.1 mM ZnCl2, 0.1% NP-40, pH 7.2 (Buffer A), disrupted by sonication on ice using three 5-second bursts (Branson 450 Sonifier) and centrifuged at 100,000×g for one hour. […]

L-SMase = biological target: T1, L-SMase (Homo sapiens, UniProt P17405); experiment: SMase assay of HUVEC cell homogenate, zinc-dependency; format: biochemical
T1 construct: endogenous in cells; host or cells: HUVEC, sonicated cell homogenate
T1 sequence (P17405 47-631): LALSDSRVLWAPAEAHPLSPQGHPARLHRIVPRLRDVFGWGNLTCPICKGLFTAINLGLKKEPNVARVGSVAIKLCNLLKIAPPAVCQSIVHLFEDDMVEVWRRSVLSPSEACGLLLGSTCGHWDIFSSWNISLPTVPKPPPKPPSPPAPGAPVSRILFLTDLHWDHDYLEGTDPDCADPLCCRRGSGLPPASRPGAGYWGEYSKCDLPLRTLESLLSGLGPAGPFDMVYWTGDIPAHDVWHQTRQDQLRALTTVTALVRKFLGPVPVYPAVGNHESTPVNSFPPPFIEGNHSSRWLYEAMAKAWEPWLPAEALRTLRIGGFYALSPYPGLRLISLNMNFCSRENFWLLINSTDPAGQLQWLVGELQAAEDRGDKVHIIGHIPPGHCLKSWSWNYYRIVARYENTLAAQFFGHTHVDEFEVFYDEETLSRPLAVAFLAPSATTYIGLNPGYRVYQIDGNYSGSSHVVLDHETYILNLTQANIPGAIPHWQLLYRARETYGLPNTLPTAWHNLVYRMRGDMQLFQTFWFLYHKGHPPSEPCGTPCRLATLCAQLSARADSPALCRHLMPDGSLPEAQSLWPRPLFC
Experimental: Smase Assay—As previously described (15), the standard 200-μl assay mixture consisted of up to 40 μl of sample (conditioned media or homogenized cells; see above, and a volume of assay buffer (0.1 M sodium acetate, pH 5.0) to bring the volume to 160 μl. The reaction was initiated by the addition of 40 μl substrate (50 pmol [^3H]sphingomyelin) in 0.25 M sucrose containing 3% Triton X-100 (final concentration of Triton X-100 in the 200-μl assay mix=0.6%). When added, the final concentrations of EDTA and Zn^2+ were 5 mM and 0.1 mM, respectively, unless indicated otherwise. The assay mixtures were incubated at 37° C. for no longer than 3 h and then extracted by the method of Bligh and Dyer (37); the lower, organic phase was harvested, evaporated under N2, and fractionated by TLC using chloroform:methanol (95:5). The ceramide spots were scraped and directly counted to quantify [^3H]ceramide. Typically, our assay reactions contained approximately 20 μg of cellular homogenate protein and a volume of conditioned media derived from a quantity of cells equivalent to approximately 50 μg of cellular protein.

| Compound | increase in LDH release (HUVECs) [%] | increase of higher-Mr S-SMase by densitometry of immunoblot (S-SMase of HUVECs) | increase of enzymatic activity of L-SMase by Zn2+ (L-SMase; L-SMase from IL-1β-treated HUVECs) [fold] | increase of enzymatic activity of L-SMase by Zn2+ (L-SMase; L-SMase from untreated HUVECs) [fold] |
| --- | --- | --- | --- | --- |
| IL-1β: human recombinant interleukin-1β | 60 | approximately two-fold |  |  |
| [Cl-].[Cl-].[Zn+2] [Zn^2+, ZnCl2] |  |  | 1.13±0.08 | 1.09±0.04 |
